Test results as given in patent US20090215743A1, “Tricyclic benzazepine derivatives and their use” (Bayer HealthCare AG, priority 2004, published 2009).

System: sterol biosynthesis
Assay: Inhibition of squalene and cholesterol synthesis in the liver of mice (sterol biosynthesis)
Assay type: in vivo
Details: male NMRI mice, 3 mg/kg p.o., 14C-mevalonolactone, liver lipid fraction
Method: Male NMRI mice are kept on normal rodent diet (NAFAG 3883) in metabolism cages. The light/dark cycle comprises 12 hours, from 06.00 to 18.00 and from 18.00 to 06.00. The animals are employed with a body weight of between 25 g and 40 g in groups of 8-10 animals in the experiments. Feed and drinking water are available to the animals ad libitum.
The substances are, according to their solubility, administered orally in aqueous tragacanth suspension (0.5%) or in Solutol HS15/saline solution (20:80) by gavage in a volume of 10 ml/kg of body weight or else injected subcutaneously in Solutol HS15/saline solution (20:80) or DMSO/saline solution (20:80). The corresponding control groups receive only the corresponding formulating agent without active substance. One or two hours after administration of the substance, the animals receive intraperitoneal injections of radiolabelled ^14C-mevalonolactone. One or two hours after the ^14C-mevalonolactone injection, or 24 hours after the administration of substance, the animals are sacrificed, the abdominal cavity is opened, and liver tissue is removed. Immediately after removal, the tissue is dried on the surface, weighed and homogenized in isopropanol. The further processing and extraction of the synthesized squalene and its secondary products takes place by a method of I. Duncan et al. (J. Chromatogr. 1979, 162), modified by H. Bischoff et al. (Atherosclerosis 1997, 135).
The extracted lipid fraction is taken up in 1 ml of isopropanol, transferred into scintillation vials, made up with 15 ml of Ultima Gold® scintillation fluid (Packard) and counted in a liquid scintillation counter (Beckmann Coulter LS 6500).
After calculation of the specific ^14C activity of the lipid fraction (dpm/g of liver tissue), the rate of synthesis of the radiolabelled ^14C squalene and of the ^14C secondary metabolites of the animals treated with the active substance is compared with the rate of synthesis of the radiolabelled ^14C squalene and of the ^14C secondary metabolites of the control animals treated only with formulating agent. A reduction in the rate of synthesis by ≧30% compared with the rate of synthesis for the control animals (=100%) is regarded as pharmacologically active if the statistical assessment by Student's t test results in a p value of <0.05.

Compound: COc1cccc(C2OC(CC(=O)O)c3nnc(C(C)C)n3-c3ccc(Cl)cc32)c1OC (racemic) [Example 3, [8-Chloro-6-(2,3-dimethoxyphenyl)-1-isopropyl-4H,6H-[1,2,4]triazolo[4,3-a][4,1]benzoxazepin-4-yl]acetic acid]
- Inhibition relative to the untreated control group: 81%

Compound: COc1cccc(C2OC(CC(=O)O)c3nnc(C(C)(C)CO)n3-c3ccc(Cl)cc32)c1OC (racemic) [Example 62-2, [8-Chloro-6-(2,3-dimethoxyphenyl)-1-(2-hydroxy-1,1-dimethylethyl)-4H,6H-[1,2,4]triazolo[4,3-a]-[4,1]benzoxazepin-4-yl]acetic acid]
- Inhibition relative to the untreated control group: 77%

Compound: COc1cccc(C2OC(CC(=O)N3CCSC3)c3nnc(C(C)C)n3-c3ccc(Cl)cc32)c1OC (stereo not shown) [Example 41, 8-Chloro-6-(2,3-dimethoxyphenyl)-1-isopropyl-4-[2-oxo-2-(1,3-thiazolidin-3-yl)ethyl]-4H,6H-[1,2,4]triazolo[4,3-a][4,1]benzoxazepine]
- Inhibition relative to the untreated control group: 81%

Compound: COc1cccc(C2OC(CC(=O)N3CCN(C(C)=O)CC3)c3nnc(C(C)C)n3-c3ccc(Cl)cc32)c1OC (stereo not shown) [Example 50, 4-[2-(4-Acetylpiperazin-1-yl)-2-oxoethyl]-8-chloro-6-(2,3-dimethoxyphenyl)-1-isopropyl-4H,6H-[1,2,4]triazolo[4,3-a][4,1]benzoxazepine]
- Inhibition relative to the untreated control group: 75%
